Measurements reported in publication PMC8125976, “The Total Solubility of the Co-Solubilized PAHs with Similar Structures Indicated by NMR Chemical Shift” (Molecules, 2021).
Converted amounts (≈) assume the structure as drawn.

Key:
[1] = water; cited from earlier work
[2] = Solubilization of PAHs in Tween 80 micellar solutions (1H-NMR quantification, MSR); details: for MSR (molar solubilization ratio): Tween 80 10-50 mM in D2O, 25 °C; for Synergistic/inhibitory level (RΔMSR), in words: Tween 80
From the text: (§1) Molar solubilization ratio (MSR) is used to evaluate the solubilization potential of a surfactant, which is the molar concentration of the solubilized compound per mole of the surfactant concentration when the surfactant concentration is above CMC [37, 38], expressed by: (1) MSR=S−SCMC/C−CMC where S is the apparent solubility of a solute at the surfactant concentration of C, SCMC is the apparent solubility of the solute at CMC. Usually, the slope of the solubility with respect to the surfactant concentration can be considered to be MSR.
(§2) To compare the mutual effects of solutes in co-solubilization systems, the deviation ratio of MSR (RΔMSR) can be used to evaluate the effects of synergistic (RΔMSR > 0) or inhibitory (RΔMSR < 0), which can be expressed by: (2) RΔMSR%=MSRmixture−MSRsingle/MSRsingle×100% where MSRmixture and MSRsingle are the MSR values of solutes in the binary or ternary co-solubilization system and in the single solubilization system, respectively.
(§3) All reagents were used directly without further purification. First, a series of Tween 80 pure solutions at concentrations of 10, 20, 30, 40 and 50 mM and SDS pure solutions at concentrations of 40, 60, 80, 100 and 120 mM were prepared in D2O, respectively. These concentrations were set higher than their CMCs. The solubilization experiment was processed as follows: first, 8 equal 800 μL surfactant solutions at a certain surfactant concentration were injected into eight of 1.5 mL centrifuge cuitubes, respectively. One of them without the addition of PAHs was used as the blank control. […] Next, the surfactant solutions with PAHs solubilized were equilibrated on a reciprocating water bath oscillator at 200 rpm at 25 °C for 48 h. After equilibration, the above solutions were centrifuged at 10,000 rpm for 10 min. Finally, each of 600 μL of supernatant was transferred into 5 mm NMR tubes for further detection.
All NMR experiments were performed at 25 °C using a 500 MHz Agilent ProPulse NMR spectrometer (Agilent Technologies, Santa Clara, CA, USA) equipped with a 5 mm XYZ indirect detection probe and z-direction gradient coils with a maximum nominal gradient strength of 60 G cm^−1. The pulse excitation angle of 30 ° and the relaxation delay time of 5 s in ^1H-NMR experiments were chosen to assure the complete recovery of the magnetization and the accurate quantification. The Sodium Trimethylsilylpropionate (TSP) aqueous solution in the capillary was used as an external reference for the frequency and concentration calibration. […] Based on the resonance integral area of PAHs relative to that of TSP, we calculated their actual apparent concentrations. A total of 16 accumulations were used in 2D NOESY experiments, 1 s was chosen as mixing time. […] Due to the high growth rate of rotating frame overhauser effect (ROE) than that of NOE, ROESY experiments for Tween 80 systems were conducted instead of NOESY to avoid the possible spin diffusion effect in NOESY with the long mixing time. The parameters of the 2D ROESY experiments were the same as the NOESY experiments except that the mixing time was 0.2 s. MestReNova software (version 14.0.0, Mestrelab Research, Santiago de Compostella, Spain) was used to process all NMR data.

[3] = Solubilization of PAHs in SDS micellar solutions (1H-NMR quantification, MSR); details: for MSR (molar solubilization ratio): SDS 40-120 mM in D2O, 25 °C; for Synergistic/inhibitory level (RΔMSR), in words / solubility increase (RΔMSR) compared to single system: SDS
From the text: as §1, §2, §3
All NMR experiments were performed at 25 °C using a 500 MHz Agilent ProPulse NMR spectrometer (Agilent Technologies, Santa Clara, CA, USA) equipped with a 5 mm XYZ indirect detection probe and z-direction gradient coils with a maximum nominal gradient strength of 60 G cm^−1. The pulse excitation angle of 30 ° and the relaxation delay time of 5 s in ^1H-NMR experiments were chosen to assure the complete recovery of the magnetization and the accurate quantification. The Sodium Trimethylsilylpropionate (TSP) aqueous solution in the capillary was used as an external reference for the frequency and concentration calibration. […] Based on the resonance integral area of PAHs relative to that of TSP, we calculated their actual apparent concentrations. A total of 16 accumulations were used in 2D NOESY experiments, 1 s was chosen as mixing time.

[4] = binary Phe-Ant system vs single
[5] = binary Phe-Pyr system vs single
[6] = ternary Phe-Ant-Pyr system vs single
[7] = binary Ant-Pyr system vs single

Compound | MSR (molar solubilization ratio) ([2]; binary Phe-Ant system) | MSR (molar solubilization ratio) ([2]; single solubilization system) | MSR (molar solubilization ratio) ([2]; ternary Phe-Ant-Pyr system) | Synergistic/inhibitory level (RΔMSR), in words [2, 4] | Synergistic/inhibitory level (RΔMSR), in words [2, 6] | MSR (molar solubilization ratio) ([3]; binary Phe-Ant system) | MSR (molar solubilization ratio) ([3]; single solubilization system) | MSR (molar solubilization ratio) ([3]; ternary Phe-Ant-Pyr system) | Synergistic/inhibitory level (RΔMSR), in words [3, 4] | Synergistic/inhibitory level (RΔMSR), in words [3, 6] | other results
c1ccc2c(c1)ccc1ccccc12 [Phe, phenanthrene] | 0.0894 | 0.1170 | 0.0694 | inhibition | inhibition | 0.0095 | 0.0089 | 0.0166 | synergism | synergism | aqueous solubility [1]: 5.55 µM (≈ 0.989 µg/mL); MSR (molar solubilization ratio) ([2]; binary Phe-Pyr system): 0.1216; Synergistic/inhibitory level (RΔMSR), in words [2, 5]: synergism; MSR (molar solubilization ratio) ([3]; binary Phe-Pyr system): 0.0157; solubility increase (RΔMSR) compared to single system ([3]; binary Phe-Pyr system): 76.4%; Synergistic/inhibitory level (RΔMSR), in words [3, 5]: synergism; solubility increase (RΔMSR) compared to single system ([3]; ternary Phe-Ant-Pyr system): 86.5%
c1ccc2cc3ccccc3cc2c1 [Ant, anthracene] | 0.0084 | 0.0094 | 0.0080 | slight inhibition | slight inhibition | 0.0011 | 0.0011 | 0.0013 | neither Phe nor Pyr contributes to the solubility increase | slight synergism | MSR (molar solubilization ratio) ([2]; binary Ant-Pyr system): 0.0081; Synergistic/inhibitory level (RΔMSR), in words [2, 7]: slight inhibition; MSR (molar solubilization ratio) ([3]; binary Ant-Pyr system): 0.0011; Synergistic/inhibitory level (RΔMSR), in words [3, 7]: neither Phe nor Pyr contributes to the solubility increase
